Data reported in PMC5557811 (Scientific Reports, 2017).
Entries after “also recorded” stand apart in the source; their conditions may differ.

What was measured:
[1] = system: SDH activity of F. graminearum mitochondrial SQR (complex II); type: biochemical, Fusarium graminearum; conditions: absorbance 600 nm, 25 °C
[2] = system: SDH activity of P. indica mitochondrial SQR (complex II); type: biochemical, Piriformospora indica
[3] = system: SdhB; type: binding, Fusarium graminearum
[4] = system: yeast strain Y2HGold; experiment: Bait toxicity test in yeast; type: cell-based, Saccharomyces cerevisiae; conditions: pGBKT7::Mtk vs pGBKT7 empty vector, growth on SDO/–Trp plates; data not shown
[5] = system: Fusarium graminearum; conditions: read-out: IC50 against F. graminearum; cited from earlier work
[6] = system: Fusarium graminearum; conditions: in vivo; cited from earlier work
[7] = system: Blumeria graminis f. sp. hordei; conditions: cited from earlier work
Source text: (§1) Insects are well protected against pathogens by an immunity-related arsenal of effector molecules including antimicrobial peptides (AMPs). Some AMPs are active against a broad spectrum of microbes, whereas the activity of others is restricted to certain types of bacteria or fungi. Insects produce a large number of antifungal peptides to protect them against fungal pathogens and parasites, and these peptides often interact with intracellular targets to inhibit key physiological processes such as DNA and protein synthesis, cell cycle progression and metabolic activity[1]–[3]. AMPs therefore offe ...

[8] = system: Piriformospora indica; conditions: cited from earlier work
Source text: as §1

[9] = system: β(1,3)-glucanosyltransferase Gel1; conditions: cited from earlier work

Substance: metchnikowin (HRHQGPIFDTRPSPFNPNQPRPGPIY; Metchnikowin synthetic; UniProt Q24395 27-52, looked up) [Mtk, 26-residue proline-rich linear antifungal peptide from Drosophila melanogaster; synthetic Mtk from Pepmic used in SDH assay]
- reduction in mitochondrial SDH activity, significance by concentration ([1]; Mtk 2, 1, 0.5, 0.25, 0.12 and 0.06 µM, all concentrations except the lowest, 30 min, vs control without Mtk, means of three independent experiments): All concentrations except the lowest caused significant reductions
- maximal inhibition of mitochondrial SDH activity ([1]; synthetic Mtk, tested at 0.06, 0.12, 0.25, 0.5, 1 and 2 µM, isolated mitochondria, DCIP colorimetric, kinetic 30 min, relative to control (0 µM peptide = 100%), mean of three independent experiments, in triplicate): up to 52%
- reduction in mitochondrial SDH activity [2]: unaffected; also recorded: no reduction was observed; also recorded: did not inhibit
- YFP fluorescence of Mtk constructs without a fusion partner (auto-activation) ([3]; Mtk constructs with YFPCempty or YFPNempty, cytoplasm and nucleus): produced YFP fluorescence in both the cytoplasm and nucleus
- YFP fluorescence on co-expression of Mtk and SdhB ([3]; Nicotiana benthamiana leaves, 3 days after injection, Mtk and SdhB YFP fusions): did not result in detectable YFP fluorescence
- toxicity towards yeast cells [4]: not independently toxic
- IC50 [5]: 1000 nM
- antifungal activity when expressed in barley [6]: acts specifically against
- antifungal activity when expressed in barley [7]: acts specifically against
- antifungal activity when expressed in barley [8]: inactive
- interference with F. graminearum cell wall biosynthesis by targeting Gel1 [9]: interferes with F. graminearum cell wall biosynthesis
